Results as given in patent US20060014231A1, “Methods and compositions to promote bone homeostasis” (priority 2004, published 2006).

T1: NR1H3 (Homo sapiens, UniProt Q13133)
T1 construct: amplification of the complete open reading frame from ATG start codon to the stop codon of drugable genes; expressed in transfected cells; host or cells: primary human bone-marrow mesenchymal progenitor cells (MPCs), adenoviral transduction (Ad5-NR1H3 with Ad-hCAR)
T1 sequence (Q13133 1-447): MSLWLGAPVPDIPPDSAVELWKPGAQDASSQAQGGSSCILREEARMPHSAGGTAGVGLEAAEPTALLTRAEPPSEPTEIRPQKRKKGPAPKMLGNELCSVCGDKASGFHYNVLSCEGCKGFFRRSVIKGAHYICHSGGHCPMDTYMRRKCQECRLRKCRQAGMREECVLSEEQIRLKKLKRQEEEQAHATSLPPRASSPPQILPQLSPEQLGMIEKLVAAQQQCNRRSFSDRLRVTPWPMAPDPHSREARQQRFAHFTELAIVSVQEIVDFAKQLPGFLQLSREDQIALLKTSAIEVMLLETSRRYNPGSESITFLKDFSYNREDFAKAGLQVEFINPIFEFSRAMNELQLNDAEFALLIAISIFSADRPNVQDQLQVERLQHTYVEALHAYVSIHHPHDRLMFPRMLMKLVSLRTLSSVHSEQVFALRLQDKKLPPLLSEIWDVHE

T2: NR1H2 (Homo sapiens, UniProt P55055)
T2 construct: amplification of the complete open reading frame from ATG start codon to the stop codon of drugable genes; expressed in transfected cells; host or cells: primary human bone-marrow MPCs, adenoviral transduction (Ad5-NR1H2 with Ad-hCAR)
T2 sequence (P55055 1-460): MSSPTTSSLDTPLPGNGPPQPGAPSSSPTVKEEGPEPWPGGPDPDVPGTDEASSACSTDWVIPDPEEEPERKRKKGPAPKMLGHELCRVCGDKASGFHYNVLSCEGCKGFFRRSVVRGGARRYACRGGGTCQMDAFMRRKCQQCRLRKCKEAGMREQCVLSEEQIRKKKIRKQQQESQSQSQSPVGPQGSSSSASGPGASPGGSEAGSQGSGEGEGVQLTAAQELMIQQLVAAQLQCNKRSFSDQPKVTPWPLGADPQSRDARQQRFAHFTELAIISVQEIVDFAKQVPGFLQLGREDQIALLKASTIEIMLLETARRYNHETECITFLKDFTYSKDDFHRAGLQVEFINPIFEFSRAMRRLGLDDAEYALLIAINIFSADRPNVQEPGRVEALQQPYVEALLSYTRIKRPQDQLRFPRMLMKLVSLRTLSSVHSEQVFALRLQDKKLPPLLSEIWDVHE

B1: PTH: recombinant human parathyroid hormone, known osteogenic agent (protein, UniProt P01270 32-115, looked up)
Parathyroid hormone: SVSEIQLMHNLGKHLNSMERVEWLRKKLQDVHNFVALGAPLAPRDAGSQRPRKKEDNVLVESHEKSLGEADKADVNVLTKAKSQ
modifications: Parathyroid hormone
notes: recombinant human parathyroid hormone, known osteogenic agent

Legend:
[1] = target: T3, GPR65 (Homo sapiens, UniProt Q8IYL9); test: Alkaline phosphatase (AP) assay in MPCs infected with Ad-GPR65 and treated with ligand; format: cell-based; conditions: MPCs infected with Ad-GPR65, increasing ligand concentrations
T3 construct: amplification of the complete open reading frame from ATG start codon to the stop codon of drugable genes; expressed in transfected cells; host or cells: primary human bone-marrow MPCs, adenoviral transduction (Ad-GPR65 with Ad-hCAR)
T3 sequence (Q8IYL9 whole entry): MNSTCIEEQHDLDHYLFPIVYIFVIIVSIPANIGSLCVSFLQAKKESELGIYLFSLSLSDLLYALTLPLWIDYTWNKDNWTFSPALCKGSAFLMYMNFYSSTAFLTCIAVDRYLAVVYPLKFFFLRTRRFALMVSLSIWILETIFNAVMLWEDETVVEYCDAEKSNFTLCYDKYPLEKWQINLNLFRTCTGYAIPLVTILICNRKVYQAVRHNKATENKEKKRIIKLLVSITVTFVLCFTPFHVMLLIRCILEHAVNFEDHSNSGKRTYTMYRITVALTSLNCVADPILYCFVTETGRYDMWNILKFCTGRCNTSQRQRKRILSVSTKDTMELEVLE
Procedure: These dose-response curves are depicted in FIG. 5. A dose-response curve for AP activity is generated for MPCs infected with Ad-NR1H3 and treated with T0901317 (FIG. 5A). MPCs are seeded on day 0 at 1000 cells per well of a 384 well plate and co-infected the next day using AdC51-hCAR (MOI 250) and different MOIs of Ad5-NR1H3 (MOI 12000, 4000, 1333, 444). On day 1, 5 concentrations (1E-10M, 1E-9M, 1E-8M, 1E-7M, 1E-6M) of the compound T0901317 (Cayman Chemical, Michigan USA, Cat. No. 71810) with fixed vehicle concentration (the vehicle is DMSO at the concentration is 0.01 %) are added to the wells. After incubation for 6 days at 37° C., 10% CO2 in a humidified incubator, up-regulation of alkaline phosphatase is read: 15 μl MUP is added to each well, the plates are incubated for 15 min at 37° C. and monitored for AP activity using a fluorescence plate reader (Fluostar, BMG).
Dose-response curves for AP activity are generated in a similar way for MPCs infected with Ad-GPR65 and treated with 1-b-D-Galactosylsphingosine (FIG. 5B); for MPCs infected with Ad-AVPR2 and treated with [deamino-Cys1, D-Arg8]-Vasopressin (DDAVP) (FIG. 5C).

[2] = target: T1, NR1H3; test: Alkaline phosphatase (AP) assay in MPCs infected with Ad-NR1H3 and treated with ligand; format: cell-based; conditions: MPCs infected with Ad-NR1H3, increasing ligand concentrations, MUP fluorescence readout
Procedure: Cellular AP activity is determined 6 days after the infection (or ligand addition—see below). The principle of the assays is depicted in FIG. 2. Mesenchymal stem cells derived from bone marrow are infected with the FLeXSelect™ cDNA library viruses in the presence of Ad5C15-hCAR or Ad5C20-hCAR virus. Six days after the start of infection or treatment with a ligand, endogenous alkaline phosphatase activity is measured following addition of 4-methylumbelliferyl […] (MUP) substrate.
The stocks of the Ad-control-viruses are generated in 96 well plates (control plate). The 2 μl volume corresponds to a theoretical MOI of 5000. Controls are: P1=Ad-BMP2; P2=Ad-H4-2; P3=Ad-H4-291; N1=Ad-LacZ; N2=Ad-empty; N3=Ad-eGFP. Up-regulation of alkaline phosphatase is read at 6 days post infection (6 dpi): 15 μl 4-Methylumbelliferyl-phosphate (MUP, Sigma) is added to each well, the plates are incubated for 15 min at 37° C. and monitored for AP activity using a fluorescence plate reader (Fluostar, BMG).
These dose-response curves are depicted in FIG. 5. […] MPCs are seeded on day 0 at 1000 cells per well of a 384 well plate and co-infected the next day using AdC51-hCAR (MOI 250) and different MOIs of Ad5-NR1H3 (MOI 12000, 4000, 1333, 444).
After 6 days, medium is removed and replaced with fresh medium containing the same concentrations of the compound GW3965. Readouts of AP activity are performed at several time points after the start of the experiment, typically after 7, 10 and 13 days.
After 6 days, medium is removed and replaced with fresh medium containing the same concentrations of the compound APD.

[3] = target: T2, NR1H2; test: Alkaline phosphatase (AP) assay in MPCs infected with Ad-NR1H2 and treated with ligand; format: cell-based; conditions: MPCs infected with Ad-NR1H2, increasing ligand concentrations, MUP readout after 7, 10 and 13 days
Procedure: (§1) After 6 days, medium is removed and replaced with fresh medium containing the same concentrations of the compound T0901317. Readouts of AP activity are performed at several time points after the start of the experiment, typically after 7, 10 and 13 days. Up-regulation of alkaline phosphatase activity is read as follows: medium is removed from the monolayers, 15 μl MUP is added to each well, the plates are incubated for 15 min at 37° C. and then read for AP activity using a fluorescence plate reader (Fluostar, BMG).
as §1, with “MPCs are seeded on day 0 at 1000 cells per well of a 384 well plate and co-infected the next day using AdC51-hCAR (MOI 250) and different MOIs of Ad5-NR1H2 (MOI 2000, 666). On day 1, 9 concentrations (1.52E-9M, 4.57E-9M, 1.37E-8M, 4.12E-8M, 1.23E-7M, 3.7E-7M, 1.11E-6M, 3.33E-6M, 1E-5M) of the compound GW3965 with fixed vehicle concentration (DMSO at final concentration of 0.161%) are added to the wells. After” for “After”, “GW3965.” for “T0901317.”
as §1, with “APD.” for “T0901317.”

[4] = system: MPCs; test: Up-regulation of NR5A2 and NR1H3 mRNA levels by osteogenic triggers in MPCs; format: cell-based, human; conditions: final concentration 0.1 μM, versus vehicle, several time points
Procedure: 100,000 MPCs are seeded in each well of a 6 well plate in 2 ml MPC medium, containing 10% FCS. The next day, after incubation at 37° C., 10% CO2 in a humidified incubator, cells are co-infected with AdC15-hCAR (final MOI of 750) and Ad-BMP2, Ad-RUNX2, Ad-MSX2, Ad-PTHR1/PTHLH or Ad-eGFP or Ad-luciferase as negative controls (final MOIs of 1250 and 2500). Alternatively, cells are treated with dexamethasone (final concentration 0.1 μM), VitD3 (final concentration 0.1 μM) or the vehicle controls (0.1% EtOH or DMSO). Cells are incubated at 37° C., 10% CO2 in a humidified incubator for a further six days unless cells are already harvested for RNA isolation. Virus is removed and replaced by 2 ml fresh OS medium (proprietary medium containing 10% FCS). Over the next 18 days, medium is refreshed 3 times per 2 weeks. Every other time, medium is refreshed half or completely. […] The fold up-regulation of NR5A2 or NR1H3 mRNA compared to negative controls (vehicle for dexamethasone or VitD3 treatment) or Ad-luciferase for Ad-infections) is calculated (FIG. 16).

[5] = system: calvarial skull bones (hemicalvaria); test: Calvarial skull assay (bone organ culture, weight and histological readout); design: species or system CD1 mice; conditions: histological readout
Procedure: CD1 pups are harvested around birth from CD1 female mice (received from Janvier (Le Genest St Isle, France) when they were 11 days pregnant). Pups are decapitated and the calvarial skull is dissected and split into 2 hemicalvaria. Hemicalvaria are blotted using sterile gauze, weighed and cultured in 24 well plates (MEMalpha or BGJb-Fitton-Jackson medium containing 50 μg/ml L-ascorbic acid (Sigma, A-4034), 5 mM β-glycerophosphate (Sigma, G-9891) and Penicillin-Streptomycin (Invitrogen Cat # 15140-122)). Small molecules (ligands, agonists, antagonists) are tested in at least three-fold at a minimum of 3 concentrations. Each small molecule is added to the medium on day 0 and added again when refreshing the medium (every 2-3 days). Three to 16 days after the start of the experiment, skulls are weighed again after blotting them dry using sterile gauze. The weight difference is calculated, expressed as percent weight change and the mean and standard deviations (SD) are calculated for the triplicate measurements. Data are analyzed using the Student's t-test.
The formation of new osteoid is analyzed histologically as follows: hemicalvaria are fixed in 10% buffered formalin for at least 2 days, decalcified in 10% EDTA overnight, processed through graded alcohols and embedded in paraffin wax. Three to 10 μm sections are prepared of the calvaria and stained with hematoxylin and eosin (H&E). Healthy cells, dead cells, old and new bone, and collagen are identified by their distinctive morphology and colouring observed after H&E staining. The surfaces taken by these are measured stereologically (μm^2 readout) and termed Osteoblast area, Debris area, Native and New bone area, Collagen area and Total area (sum of the previous 5 areas), respectively. In addition, the thickness (μm readout) is measured at 8 positions, evenly spaced over the section.
The histological readout of the calvarial skull assay is developed using known osteogenic agents. Hemicalvaria were treated with recombinant human parathyroid hormone (rhPTH).
T0901317 is added to the culture medium of the dissected hemicalvaria at the day of dissection at several doses (19.5, 78.1 and 313 nM), in fourfold. The concentration of the solvent (vehicle), DMSO, is fixed at a final concentration of 0.05%. The medium, containing T0901317 or vehicle control is refreshed every 2-3 days. Hemicalvaria are harvested 7 days after the initiation of the experiment and subjected to the histological analysis described above.

Molecule	up-regulation of endogenous alkaline phosphatase (AP) activity [2]	up-regulation of alkaline phosphatase (AP) activity [3]	also measured
CCCCCCCCCCCCCC=CC(O)C(N)CO[C@@H]1O[C@H](CO)[C@H](O)[C@H](O)[C@H]1O (stereo partly drawn) [1-b-D-Galactosylsphingosine]	–	–	up-regulation of endogenous alkaline phosphatase (AP) activity [1]: dose-dependently increase
CC(=O)Oc1ccc2c(c1)[C@@]1(C)CCC[C@](C)(C(=O)OC(=O)[C@@]3(C)CCC[C@]4(C)c5cc(OC(C)=O)ccc5CC[C@@H]34)[C@@H]1CC2 [APD, acetyl podocarpic dimer]	dose-response relation	dose-response relation	–
O=C(O)Cc1cccc(OCCCN(Cc2cccc(C(F)(F)F)c2Cl)CC(c2ccccc2)c2ccccc2)c1 [GW3965]	dose-response relation	dose-response relation	–
C=C1CC[C@H](O)C/C1=C/C=C1\CCC[C@]2(C)[C@@H]([C@H](C)CCCC(C)C)CC[C@@H]12 [VitD3]	–	–	NR5A2 mRNA levels [4]: up-regulated
B1	–	–	effect on bone tissue ([5]; 10^−7 M): resorptive effect; effect on bone tissue ([5]; 10^−11 M): induces bone build-up
